What follows are compounds tested against T1, human IDO1 (Homo sapiens, UniProt P14902) (assay: HEK293 cells stably expressing human IDO1, IDO inhibition assay (kynurenine, Ehrlich reagent)). Details: 20 hours incubation, absorbance at 490 nm, read-out: HEK Human IDO-1 Bio Activity (IDO IC50).
T1 construct: expressed in transfected cells
Format: cell-based
Experimental: HEK293 cells were transfected with a pCDNA-based mammalian expression vector harboring human IDO1 cDNA (NM 002164.2) by electroporation. They were cultured in medium (DMEM with 10% FBS) containing 1 mg/ml G418 for two weeks. Clones of HEK293 cells that stably expressed human IDO1 protein were selected and expanded for IDO inhibition assay. The human IDO1/HEK293 cells were seeded at 10,000 cells per 50 μL per well with RPMI/phenol red free media contains 10% FBS in a 384-well black wall clear bottom tissue culture plate (Matrix Technologies LLC) 100 nL of certain concentration of compound was then added to each well using ECHO liquid handling systems. The cells were incubated for 20 hours in 37° C. incubator with 5% CO2. The compound treatments were stopped by adding trichloroacetic acid (Sigma-Aldrich) to a final concentration at 0.2%. The cell plate was further incubated at 50° C. for 30 minute. The equal volume supernatant (20 μL) and 0.2% (w/v) Ehrlich reagent (4-dimethylaminobenzaldehyde, Sigma-Aldrich) in glacial acetic acid were mixed in a new clear bottom 384-well plate. This plate was then incubated at room temperature for 30 minute. The absorbance at 490 nm was measured on Envision plate reader. Compound IC50 values were calculated using the counts of 500 nM of a reference standard treatment as one hundred percent inhibition, and counts of no compound but DMSO treatment as zero percent inhibition.

T1 sequence (P14902 whole entry): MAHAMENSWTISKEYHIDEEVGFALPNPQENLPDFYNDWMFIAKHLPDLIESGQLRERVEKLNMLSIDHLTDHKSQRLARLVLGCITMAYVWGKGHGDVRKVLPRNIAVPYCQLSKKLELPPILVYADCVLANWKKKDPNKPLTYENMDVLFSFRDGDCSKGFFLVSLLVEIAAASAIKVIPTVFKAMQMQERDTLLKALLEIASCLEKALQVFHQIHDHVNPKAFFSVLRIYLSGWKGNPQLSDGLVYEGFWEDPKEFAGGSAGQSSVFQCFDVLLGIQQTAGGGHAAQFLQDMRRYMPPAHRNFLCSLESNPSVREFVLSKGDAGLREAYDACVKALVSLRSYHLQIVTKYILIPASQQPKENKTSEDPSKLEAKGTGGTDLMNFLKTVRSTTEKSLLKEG

Question: For `O=C(O)Cc1ccc(CN(C(=O)Nc2ccc(Cl)cc2)[C@H]2CC[C@@H](c3ccnc4ccc(F)cc43)CC2)cc1` [Example 28, 2-(4-((3-(4-chlorophenyl)-1-(cis-4-(6-fluoroquinolin-4-yl)cyclohexyl)ureido)methyl)phenyl)acetic acid], which IC50 is on record?
Answer: < 10000 nM

Question: How did the IC50 turn out when `O=C(Nc1ccc(F)cc1)N(Cc1ccccc1)[C@H]1CC[C@H](c2ccnc3ccc(F)cc32)CC1` [Example 19, 1-benzyl-3-(4-fluorophenyl)-1-(trans-4-(6-fluoroquinolin-4-yl)cyclohexyl)urea] was run?
Answer: < 100 nM

Question: With `COc1ccc(CN(C(=O)Nc2ccc(F)cc2F)[C@H]2CC[C@H](c3ccccc3)CC2)cc1` [Example 5, 3-(2,4-difluorophenyl)-1-(4-methoxybenzyl)-1-(trans-4-phenylcyclohexyl)urea] as the compound, how does the IC50 read?
Answer: < 1000 nM

Question: `CCN(C(=O)Nc1ccc(Cl)cc1)[C@H]1CC[C@@H](c2ccnc3ccc(F)cc32)CC1` [Example 17, 3-(4-chlorophenyl)-1-ethyl-1-(cis-4-(6-fluoroquinolin-4-yl)cyclohexyl)urea] was tested. Which IC50 did it give?
Answer: < 1000 nM

Question: For `O=C(Nc1ccc(Cl)cc1F)N(Cc1ccccc1)[C@H]1CC[C@@H](c2ccnc3ccc(F)cc32)CC1` [Example 24, 1-benzyl-3-(4-chloro-2-fluorophenyl)-1-(cis-4-(6-fluoroquinolin-4-yl)cyclohexyl)urea], which IC50 is on record?
Answer: < 100 nM

Question: With `C[C@H](NC(=O)N(Cc1ccccc1)[C@H]1CC[C@H](c2ccnc3ccc(F)cc32)CC1)c1ccc(Cl)cc1` [Example 39, 1-benzyl-3-((S)-1-(4-chlorophenyl)ethyl)-1-((1r,4S)-4-(6-fluoroquinolin-4-yl)cyclohexyl)urea] as the compound, how does the IC50 read?
Answer: < 10000 nM

Question: How did the IC50 turn out when `CN(C(=O)Nc1ccc(Cl)cc1)C1CCN(c2ccnc3ccc(F)cc23)CC1` [Example 1, 3-(4-Chlorophenyl)-1-(1-(6-fluoroquinolin-4-yl)piperidin-4-yl)-1-methylurea] was run?
Answer: < 1000 nM

Question: How did the IC50 turn out when `O=C(Nc1ccc(Cl)cc1)N(Cc1ccccc1)[C@H]1CC[C@@H](c2ccnc3ccc(F)cc32)CC1` [Example 23, 1-benzyl-3-(4-chlorophenyl)-1-(cis-4-(6-fluoroquinolin-4-yl)cyclohexyl)urea] was run?
Answer: < 1000 nM

Question: `Cc1ccc(NC(=O)N(Cc2ccccc2)[C@H]2CC[C@H](c3ccnc4ccc(F)cc43)CC2)cc1` [Example 20, 1-benzyl-1-(trans-4-(6-fluoroquinolin-4-yl)cyclohexyl)-3-(p-tolyl)urea] was tested. Which IC50 did it give?
Answer: < 1000 nM

Question: How did the IC50 turn out when `COc1ccc(CN(C(=O)Nc2ccc(F)c(F)c2)[C@H]2CC[C@H](c3ccccc3)CC2)cc1` [Example 8, 3-(3,4-difluorophenyl)-1-(4-methoxybenzyl)-1-(trans-4-phenylcyclohexyl)urea] was run?
Answer: < 1000 nM

Question: For `C[C@H](NC(=O)N[C@H]1CC[C@H](c2ccnc3ccc(F)cc32)CC1)c1ccc(Cl)cc1` [Example 34, 1-((S)-1-(4-chlorophenyl)ethyl)-3-((1r,4S)-4-(6-fluoroquinolin-4-yl)cyclohexyl)urea], which IC50 is on record?
Answer: < 1000 nM

Question: With `CCCCc1ccc(NC(=O)N(C)C2CCN(c3ccnc4ccc(F)cc34)CC2)cc1` [Example 2, 3-(4-Butylphenyl)-1-(1-(6-fluoroquinolin-4-yl)piperidin-4-yl)-1-methylurea] as the compound, how does the IC50 read?
Answer: < 100 nM

Question: `C[C@@H](NC(=O)N(Cc1ccc(CC(=O)O)cc1)[C@H]1CC[C@H](c2ccnc3ccc(F)cc32)CC1)c1ccc(F)cc1` [Example 41, 2-(4-((3-((R)-1-(4-fluorophenyl)ethyl)-1-((1 r,4R)-4-(6-fluoroquinolin-4-yl)cyclohexyl)ureido)methyl)phenyl)acetic Acid] was tested. Which IC50 did it give?
Answer: < 100 nM

Question: Which IC50 does the source give for `C[C@H](NC(=O)N(C)[C@H]1CC[C@H](c2ccnc3ccc(F)cc32)CC1)c1ccc(Cl)cc1` [Example 36, 3-((S)-1-(4-chlorophenyl)ethyl)-1-((1r,4S)-4-(6-fluoroquinolin-4-yl)cyclohexyl)-1-methylurea] here?
Answer: < 1000 nM

Question: `CN(C(=O)Nc1ccc(Cl)cc1)[C@H]1CC[C@H](c2ccnc3ccc(F)cc32)CC1` [Example 14, 3-(4-Chlorophenyl)-1-(trans-4-(6-fluoroquinolin-4-yl)cyclohexyl)-1-methylurea] was tested. Which IC50 did it give?
Answer: < 100 nM

Question: `O=C(O)Cc1ccc(CN(C(=O)Nc2ccc(Cl)cc2)[C@H]2CC[C@H](c3ccnc4ccc(F)cc43)CC2)cc1` [Example 25, 2-(4-((3-(4-chlorophenyl)-1-(trans-4-(6-fluoroquinolin-4-yl)cyclohexyl)ureido)methyl)phenyl)acetic Acid] was tested. Which IC50 did it give?
Answer: < 1000 nM

Question: How did the IC50 turn out when `N#Cc1ccc(NC(=O)N(Cc2ccccc2)[C@H]2CC[C@H](c3ccnc4ccc(F)cc43)CC2)cc1` [Example 22, 1-benzyl-3-(4-cyanophenyl)-1-(trans-4-(6-fluoroquinolin-4-yl)cyclohexyl)urea] was run?
Answer: < 10000 nM

Question: For `COc1ccc(CN(C(=O)NC2CC2)C2CCC(c3ccccc3)CC2)cc1` (stereo not shown) [Example 45, 3-cyclopropyl-1-(4-methoxybenzyl)-1-((1r,4r)-4-phenylcyclo-hexyl)urea], which IC50 is on record?
Answer: < 1000 nM

Question: With `CCOc1ccc(NC(=O)N(Cc2ccc(OC)cc2)[C@H]2CC[C@H](c3ccccc3)CC2)cc1` [Example 13, 3-(4-ethoxyphenyl)-1-(4-methoxybenzyl)-1-(trans-4-phenylcyclohexyl)urea] as the compound, how does the IC50 read?
Answer: < 1000 nM

Question: For `O=C(O)Cc1ccc(CN(C(=O)Nc2ccccc2)[C@H]2CC[C@H](c3ccnc4ccc(F)cc43)CC2)cc1` [Example 27, 2-(4-((1-(trans-4-(6-fluoroquinolin-4-yl)cyclohexyl)-3-phenylureido)methyl)phenyl)acetic acid], which IC50 is on record?
Answer: < 100 nM

Question: With `COc1ccc(CN(C(=O)Nc2ccc(Cl)cc2)[C@H]2CC[C@H](c3ccccc3)CC2)cc1` [Example 4, 3-(4-Chlorophenyl)-1-(4-methoxybenzyl)-1-((1r,4r)-4-phenylcyclohexyl)urea] as the compound, how does the IC50 read?
Answer: < 100 nM

Question: With `O=C(Nc1ccc(Cl)cc1)N(Cc1ccccc1)[C@H]1CC[C@H](c2ccnc3ccc(F)cc32)CC1` [Example 18, 1-benzyl-3-(4-chlorophenyl)-1-(trans-4-(6-fluoroquinolin-4-yl)cyclohexyl)urea] as the compound, how does the IC50 read?
Answer: < 100 nM

Question: For `CN(C(=O)Nc1ccc(OC(F)(F)F)cc1)C1CCN(c2ccnc3ccc(F)cc23)CC1` [Example 3, 1-(1-(6-Fluoroquinolin-4-yl)piperidin-4-yl)-1-methyl-3-(4-(trifluoromethoxy)phenyl)urea], which IC50 is on record?
Answer: < 1000 nM

Question: How did the IC50 turn out when `COc1ccc(CN(C(=O)Nc2ccc(OC(F)(F)F)cc2)[C@H]2CC[C@H](c3ccccc3)CC2)cc1` [Example 10, 1-(4-methoxybenzyl)-1-(trans-4-phenylcyclohexyl)-3-(4-(trifluoromethoxy)phenyl)urea] was run?
Answer: < 1000 nM

Question: Which IC50 does the source give for `CCN(C(=O)N[C@@H](C)c1ccc(Cl)cc1)[C@H]1CC[C@H](c2ccnc3ccc(F)cc32)CC1` [Example 37, 3-((S)-1-(4-chlorophenyl)ethyl)-1-ethyl-1-((1r,4S)-4-(6-fluoroquinolin-4-yl)cyclohexyl)urea] here?
Answer: < 1000 nM

Question: For `C[C@H](NC(=O)N[C@H]1CC[C@@H](c2ccnc3ccc(F)cc32)CC1)c1ccc(Cl)cc1` [Example 35, 1-((S)-1-(4-chlorophenyl)ethyl)-3-((1s,4R)-4-(6-fluoroquinolin-4-yl)cyclohexyl)urea], which IC50 is on record?
Answer: < 1000 nM

Question: With `COc1ccc(CN(C(=O)Nc2ccc(F)cc2)[C@H]2CC[C@H](c3ccccc3)CC2)cc1` [Example 9, 3-(4-fluorophenyl)-1-(4-methoxybenzyl)-1-(trans-4-phenylcyclohexyl)urea] as the compound, how does the IC50 read?
Answer: < 1000 nM

Question: How did the IC50 turn out when `COc1ccc(CN(C(=O)NC2CCCCC2)[C@H]2CC[C@H](c3ccccc3)CC2)cc1` [Example 43, 3-cyclohexyl-1-(4-methoxybenzyl)-1-((1r,4r)-4-phenylcyclohexyl)urea] was run?
Answer: < 100 nM

Question: For `COc1ccc(CN(C(=O)NC2CCCC2)C2CCC(c3ccccc3)CC2)cc1` (stereo not shown) [Example 44, 3-cyclopentyl-1-(4-methoxybenzyl)-1-((1r,4r)-4-phenylcyclo-hexyl)urea], which IC50 is on record?
Answer: < 1000 nM

Question: With `COc1ccc(CN(C(=O)N[C@@H](C)c2ccc(Cl)cc2)[C@H]2CC[C@H](c3ccccc3)CC2)cc1` [Example 31, 3-((S)-1-(4-chlorophenyl)ethyl)-1-(4-methoxybenzyl)-1-((1r,4S)-4-phenylcyclohexyl)urea] as the compound, how does the IC50 read?
Answer: < 1000 nM

Question: Which IC50 does the source give for `C[C@@H](NC(=O)N(Cc1ccccc1)[C@H]1CC[C@H](c2ccnc3ccc(F)cc32)CC1)c1ccc(F)cc1` [Example 40, 1-benzyl-3-((R)-1-(4-fluorophenyl)ethyl)-1-((1r,4R)-4-(6-fluoroquinolin-4-yl)cyclohexyl)urea] here?
Answer: < 1000 nM

Question: Which IC50 does the source give for `COc1ccc(CN(C(=O)N[C@H](C)c2ccc(F)cc2)C2CCC(c3ccccc3)CC2)cc1` (stereo partly drawn) [Example 33, 3-((R)-1-(4-fluorophenyl)ethyl)-1-(4-methoxybenzyl)-1-((1r,4R)-4-phenylcyclohexyl)urea] here?
Answer: < 100 nM

Question: Which IC50 does the source give for `COc1ccc(CN(C(=O)Nc2ccc(C(F)(F)F)cc2)[C@H]2CC[C@H](c3ccccc3)CC2)cc1` [Example 12, 1-(4-methoxybenzyl)-1-(trans-4-phenylcyclohexyl)-3-(4-(trifluoromethyl)phenyl)urea] here?
Answer: < 100 nM

Question: Which IC50 does the source give for `CN(C(=O)Nc1ccc(Cl)cc1)[C@H]1CC[C@@H](c2ccnc3ccc(F)cc32)CC1` [Example 15, 3-(4-chlorophenyl)-1-(cis-4-(6-fluoroquinolin-4-yl)cyclohexyl)-1-methylurea] here?
Answer: < 1000 nM
